Values after ≈ are worked out from the molar mass of the structure shown. Active and inactive are the calls of the source. The rule behind the calls is not given here.

What is called MIC is the least concentration at which growth counts as inhibited. The term inhibition denotes the change of the read-out against control, counted positive when it falls. In general, IC50 refers to the midpoint of a concentration-inhibition curve.

Data set [1] concerns Pseudomonas aeruginosa. The data set can be described thus: Antibacterial activity against Pseudomonas aeruginosa assessed as inhibition of bacterial growth incubated for 24 hrs by CLSI broth microdilution method. The class given is functional. The settings on record: for MIC: Pseudomonas aeruginosa. (In broth dilution the organism is exposed to a series of concentrations in liquid medium.)

Data set [2] can be described thus: Inhibition of quorum sensing system in Pseudomonas aeruginosa assessed as inhibition of pyocyanin production at sub-MIC by absorbance based analysis.
The subject of data set [3] is Pseudomonas aeruginosa. The data set can be described thus: Antibacterial activity against Pseudomonas aeruginosa ATCC 27853 assessed as zone of growth inhibition incubated for 24 hrs by agar diffusion method. The class given is functional. On the technique in general: Agar diffusion results depend on both activity and mobility in agar.
Data set [4] can be described thus: Inhibition of quorum sensing system in Pseudomonas aeruginosa assessed as inhibition of rhamnolipid production at sub-MIC by spectrophotometric method.
Data set [5] can be described thus: Inhibition of quorum sensing system in Pseudomonas aeruginosa assessed as inhibition of biofilm production at sub-MIC incubated for 24 hrs by crystal violet staining based analysis.
For a further data set, the system named is Bacillus subtilis. In words: Antibacterial activity against Bacillus subtilis ATCC 6633 assessed as inhibition of bacterial growth incubated for 24 hrs by agar diffusion method. The class given is functional, organism-based.
The nature of data set [6]: Cytotoxicity against human HDFa cells assessed as reduction in cell viability incubated for 24 hrs by MTT assay. The class given is toxicity, cell-based. A general note: Formazan colour is commonly taken as a measure of viable cells.
The next data set concerns Candida albicans. The data set can be described thus: Antifungal activity against Candida albicans ATCC 60193 assessed as inhibition of fungal growth incubated for 48 hrs by agar diffusion method. The class given is functional, organism-based.
Another data set has as its system Klebsiella pneumoniae. In words: Antibacterial activity against Klebsiella pneumoniae ATCC 700603 assessed as inhibition of bacterial growth incubated for 24 hrs by agar diffusion method. The class given is functional, organism-based.

Consider `Cc1ccc2[nH]c(-c3ccc(OCC(=O)Nc4ccc(F)cc4)cc3)nc2c1`, for which the SubMIC in the data set on Pseudomonas aeruginosa [1] was determined as 9.3 µM. In addition, in the data set on Pseudomonas aeruginosa [1], the MIC was determined as 37.2 µM (≈ 14 µg/mL). Besides, the inhibition in [2] came out at 55.8%; in data set [4], 35.2%; in [5] it was 59.6%. The “inhibition zone (IZ)” value in the data set on Pseudomonas aeruginosa [3] was determined as 19 mm. For the same compound, the outcome in the data set with Bacillus subtilis was Active.
In the case of `C/C(=C\C(=O)OCCCCCCCCC(=O)O)C[C@@H]1OC[C@H](C[C@@H]2O[C@H]2[C@@H](C)[C@H](C)O)[C@@H](O)[C@H]1O` [MUPIROCIN], the IC50 at 24 h in data set [6] was determined as 161 µg/mL (≈ 322 µM).
On to `Cc1ccc2[nH]c(-c3ccc(OCC(=O)Nc4ccc(Cl)cc4)cc3)nc2c1`, for which, in the data set on Pseudomonas aeruginosa [1], the SubMIC came out at 8.9 µM. The MIC in the data set on Pseudomonas aeruginosa [1] turned out to be 35.7 µM (≈ 14 µg/mL). Moreover, the inhibition in data set [2] came to 38.2%; in data set [4], 29.6%; in [5], 55.7%. In the data set on Pseudomonas aeruginosa [3], the “inhibition zone (IZ)” value was found to be 19 mm. For the same compound, the outcome with Bacillus subtilis was Active.
Turning to `Cc1ccc2[nH]c(-c3ccc(OCC(=O)Nc4ccccc4C)cc3)nc2c1`, the SubMIC with Pseudomonas aeruginosa [1] is 18.8 µM. For the same compound, the MIC with Pseudomonas aeruginosa [1] stood at 57.7 µM (≈ 21.4 µg/mL). Moreover, the inhibition in data set [2] turned out to be 31%; in [4], 13.6%; in [5], 39.5%. Besides, in the data set on Pseudomonas aeruginosa [3], the “inhibition zone (IZ)” value is reported as 14 mm. Also, in the data set on Candida albicans, the result was Active.
As to `O=C(COc1ccc(-c2nc3cc(Cl)ccc3[nH]2)cc1)Nc1ccc(F)cc1`, the SubMIC in the data set on Pseudomonas aeruginosa [1] is 8.8 µM. In the data set on Pseudomonas aeruginosa [1], the MIC amounted to 35.3 µM (≈ 14 µg/mL). Also, the values for the inhibition in data set [2], in data set [4] and in data set [5] were 32.8%, 18.1% and 45%, respectively. In addition, the “inhibition zone (IZ)” value in the data set on Pseudomonas aeruginosa [3] is recorded as 19 mm. The result in the data set with Candida albicans and with Klebsiella pneumoniae was Active.
On to `Cc1ccc2[nH]c(-c3ccc(OCC(=O)Nc4ccc([N+](=O)[O-])cc4)cc3)nc2c1`, for which, in the data set with Pseudomonas aeruginosa [1], the SubMIC stood at 17.4 µM. In addition, the minimal inhibitory concentration (MIC) with Pseudomonas aeruginosa [1] came to 69.9 µM (≈ 28.1 µg/mL). The inhibition in data set [2] is 33.7%; in data set [4], 15%; in [5], 44.1%. The “inhibition zone (IZ)” value in the data set on Pseudomonas aeruginosa [3] came to 15 mm. For the same compound, in the data set with Bacillus subtilis, the outcome was Active.
`Cc1ccc2[nH]c(-c3ccc(OCC(=O)Nc4ccccc4)cc3)nc2c1`: in the data set with Pseudomonas aeruginosa [1], the SubMIC is 19.5 µM. Besides, the MIC with Pseudomonas aeruginosa [1] is 78.7 µM (≈ 28.1 µg/mL). The inhibition in [2] was 54.3%; in data set [4], 33%; in [5], 56.3%. Moreover, in the data set with Pseudomonas aeruginosa [3], the “inhibition zone (IZ)” value amounted to 15 mm. In the data set on Bacillus subtilis, the result was Active.
Regarding `O=C(COc1ccc(-c2nc3ccccc3[nH]2)cc1)Nc1ccc(Cl)cc1`, the SubMIC with Pseudomonas aeruginosa [1] was found to be 37 µM. In the data set on Pseudomonas aeruginosa [1], the MIC is 149 µM (≈ 56.2 µg/mL). The inhibition in data set [2] came out at 58%; in [4] it was 34.4%; in data set [5], 63.1%. The “inhibition zone (IZ)” value in the data set on Pseudomonas aeruginosa [3] was 17 mm. The result in the data set on Candida albicans and in the data set with Klebsiella pneumoniae was Active.
With `O=C(COc1ccc(-c2nc3ccccc3[nH]2)cc1)Nc1ccccc1[N+](=O)[O-]`, the SubMIC with Pseudomonas aeruginosa [1] stood at 36 µM. Besides, the minimum inhibitory concentration (MIC) in the data set with Pseudomonas aeruginosa [1] is 145 µM (≈ 56.2 µg/mL). Besides, the inhibition came out at 60.3% in [2], 44.6% in data set [4] and 63.8% in data set [5]. Also, the “inhibition zone (IZ)” value in the data set on Pseudomonas aeruginosa [3] is 15 mm. Further, in the data set on Bacillus subtilis, the result was Active.
Consider `COc1ccc(NC(=O)COc2ccc(-c3nc4cc(Cl)ccc4[nH]3)cc2)cc1`, for which the SubMIC with Pseudomonas aeruginosa [1] came out at 8.5 µM. Further, the MIC in the data set on Pseudomonas aeruginosa [1] amounted to 34.3 µM (≈ 14 µg/mL). Also, the results for the inhibition in [2], in data set [4] and in data set [5] were 28.9%, 13.8% and 39.2%, respectively. Also, the “inhibition zone (IZ)” value in the data set on Pseudomonas aeruginosa [3] is on record as 17 mm. Further, the result with Candida albicans and in the data set on Bacillus subtilis was Active.

Source of the values: ChEMBL document CHEMBL5108020, “Design and synthesis of novel benzimidazole derivatives as potential Pseudomonas aeruginosa anti-biofilm agents inhibiting LasR: Evidence from comprehensive molecular dynamics simulation and in vitro investigation” (Eur J Med Chem, 2022).
